Key:
wild oat [1] = experiment: Test Example 5: herbicidal effect by foliage application, plastic box (Table 20, symbol I); assay type: in vivo, wild oat (Avena fatua); settings: foliage application, 320 g/ha, three weeks after application
In short: (§1)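 Plants sown in sterilized diluvial soil and grown 14 days in a greenhouse at 25° C to 30° C, then sprayed on the foliage with the compound's emulsion diluted in water to a predetermined herbicide amount. Injury to weeds and crops scored three weeks after application on a visual rating scale.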

green foxtail [2] = experiment: Test Example 5: herbicidal effect by foliage application, plastic box (Table 20, symbol G); assay type: in vivo, green foxtail (Setaria viridis); settings: foliage application, 320 g/ha, three weeks after application
In short: as §1

Italian ryegrass [3] = experiment: Test Example 4: herbicidal effect by soil treatment (Table 19, symbol K); assay type: in vivo, Italian ryegrass (Lolium multiflorum); settings: amount of applied herbicide 320 g/ha
In short: (§2)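 Three weeks of greenhouse growth at 25° C. to 30° C. followed a uniform surface spray of water-diluted emulsion at a predetermined herbicide amount. Seeds had been sown beforehand under about 1.5 cm of sterilized diluvial soil. Grading followed criteria set out in an earlier test.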

Japanese bulrush = experiment: Test Example 1: herbicidal activity, application before weed generation under submerged conditions (Table 16, symbol B); assay type: in vivo, Japanese bulrush (Schoenoplectus juncoides); settings: amount of applied herbicide 320 g/ha
In short: (§3)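 Emulsion formulation, water-diluted to set dose, was put onto the flooded surface (4 cm depth, alluvial soil) the same day weeds were sown and 2.5-leaf rice transplanted. After 3 weeks at 25-30 °C under glass, each species was rated 0 (≤5% kill) to 5 (≥90% kill).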

barnyard grass [4] = experiment: Test Example 3: herbicidal effect by foliage application, Wagner pot (Table 18, symbol H); assay type: in vivo, barnyard grass (Echinochloa crus-galli); settings: amount of applied herbicide 320 g/ha
In short: (§4)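 Plants were sown in alluvial soil held under 0.1–0.5 cm standing water and grown 14 days in a greenhouse at 25–30 °C. An emulsifiable formulation, water-diluted to the set dose, was then sprayed onto the foliage, and effects were scored three weeks later using previously defined criteria.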

redroot pigweed [5] = experiment: Test Example 4: herbicidal effect by soil treatment (Table 19, symbol N); assay type: in vivo, redroot pigweed (Amaranthus retroflexus); settings: amount of applied herbicide 320 g/ha
In short: as §2

redroot pigweed [6] = experiment: Test Example 5: herbicidal effect by foliage application, plastic box (Table 20, symbol N); assay type: in vivo, redroot pigweed (Amaranthus retroflexus); settings: foliage application, 320 g/ha, three weeks after application
In short: as §1

late watergrass = experiment: Test Example 1: herbicidal activity, application before weed generation under submerged conditions (Table 16, symbol A); assay type: in vivo, late watergrass (Echinochloa oryzicola); settings: amount of applied herbicide 320 g/ha
In short: as §3

barnyard grass [7] = experiment: Test Example 4: herbicidal effect by soil treatment (Table 19, symbol H); assay type: in vivo, barnyard grass (Echinochloa crus-galli); settings: amount of applied herbicide 320 g/ha
In short: as §2

barnyard grass [8] = experiment: Test Example 5: herbicidal effect by foliage application, plastic box (Table 20, symbol H); assay type: in vivo, barnyard grass (Echinochloa crus-galli); settings: foliage application, 320 g/ha, three weeks after application
In short: as §1

velvetleaf [9] = experiment: Test Example 4: herbicidal effect by soil treatment (Table 19, symbol M); assay type: in vivo, velvetleaf (Abutilon theophrasti); settings: amount of applied herbicide 320 g/ha
In short: as §2

persian speedwell [10] = experiment: Test Example 4: herbicidal effect by soil treatment (Table 19, symbol R); assay type: in vivo, Persian speedwell (Veronica persica); settings: amount of applied herbicide 320 g/ha
In short: as §2

wild oat [11] = experiment: Test Example 4: herbicidal effect by soil treatment (Table 19, symbol I); assay type: in vivo, wild oat (Avena fatua); settings: amount of applied herbicide 320 g/ha
In short: as §2

oval-leafed pondweed = experiment: Test Example 1: herbicidal activity, application before weed generation under submerged conditions (Table 16, symbol C); assay type: in vivo, oval-leafed pondweed (Monochoria vaginalis); settings: amount of applied herbicide 320 g/ha
In short: as §3

windgrass [12] = experiment: Test Example 4: herbicidal effect by soil treatment (Table 19, symbol L); assay type: in vivo, windgrass (Apera spica-venti); settings: amount of applied herbicide 320 g/ha
In short: as §2

lambsquarters [13] = experiment: Test Example 4: herbicidal effect by soil treatment (Table 19, symbol O); assay type: in vivo, lambsquarters (Chenopodium album); settings: amount of applied herbicide 320 g/ha
In short: as §2

Italian ryegrass [14] = experiment: Test Example 5: herbicidal effect by foliage application, plastic box (Table 20, symbol K); assay type: in vivo, Italian ryegrass (Lolium multiflorum); settings: foliage application, 320 g/ha, three weeks after application
In short: as §1

persian speedwell [15] = experiment: Test Example 5: herbicidal effect by foliage application, plastic box (Table 20, symbol R); assay type: in vivo, Persian speedwell (Veronica persica); settings: foliage application, 320 g/ha, three weeks after application
In short: as §1

green foxtail [16] = experiment: Test Example 4: herbicidal effect by soil treatment (Table 19, symbol G); assay type: in vivo, green foxtail (Setaria viridis); settings: amount of applied herbicide 320 g/ha
In short: as §2

blackgrass [17] = experiment: Test Example 5: herbicidal effect by foliage application, plastic box (Table 20, symbol J); assay type: in vivo, blackgrass (Alopecurus myosuroides); settings: foliage application, 320 g/ha, three weeks after application
In short: as §1

false cleavers = experiment: Test Example 4: herbicidal effect by soil treatment (Table 19, symbol Q); assay type: in vivo, false cleavers (Galium spurium); settings: amount of applied herbicide 320 g/ha
In short: as §2

rice flat sedge = experiment: Test Example 3: herbicidal effect by foliage application, Wagner pot (Table 18, symbol E); assay type: in vivo, rice flat sedge (Cyperus iria); settings: amount of applied herbicide 320 g/ha
In short: as §4

windgrass [18] = experiment: Test Example 5: herbicidal effect by foliage application, plastic box (Table 20, symbol L); assay type: in vivo, windgrass (Apera spica-venti); settings: foliage application, 320 g/ha, three weeks after application
In short: as §1

southern crabgrass [19] = experiment: Test Example 4: herbicidal effect by soil treatment (Table 19, symbol F); assay type: in vivo, southern crabgrass (Digitaria ciliaris); settings: amount of applied herbicide 320 g/ha
In short: as §2

chickweed [20] = experiment: Test Example 5: herbicidal effect by foliage application, plastic box (Table 20, symbol P); assay type: in vivo, common chickweed (Stellaria media); settings: foliage application, 320 g/ha, three weeks after application
In short: as §1

lambsquarters [21] = experiment: Test Example 5: herbicidal effect by foliage application, plastic box (Table 20, symbol O); assay type: in vivo, lambsquarters (Chenopodium album); settings: foliage application, 320 g/ha, three weeks after application
In short: as §1

blackgrass [22] = experiment: Test Example 4: herbicidal effect by soil treatment (Table 19, symbol J); assay type: in vivo, blackgrass (Alopecurus myosuroides); settings: amount of applied herbicide 320 g/ha
In short: as §2

velvetleaf [23] = experiment: Test Example 5: herbicidal effect by foliage application, plastic box (Table 20, symbol M); assay type: in vivo, velvetleaf (Abutilon theophrasti); settings: foliage application, 320 g/ha, three weeks after application
In short: as §1

southern crabgrass [24] = experiment: Test Example 5: herbicidal effect by foliage application, plastic box (Table 20, symbol F); assay type: in vivo, southern crabgrass (Digitaria ciliaris); settings: foliage application, 320 g/ha, three weeks after application
In short: as §1

Chinese sprangletop = experiment: Test Example 3: herbicidal effect by foliage application, Wagner pot (Table 18, symbol D); assay type: in vivo, chinese sprangletop (Leptochloa chinensis); settings: amount of applied herbicide 320 g/ha
In short: as §4

chickweed [25] = experiment: Test Example 4: herbicidal effect by soil treatment (Table 19, symbol P); assay type: in vivo, common chickweed (Stellaria media); settings: amount of applied herbicide 320 g/ha
In short: as §2

Compound: COc1ccccc1-c1sc2ccc(F)cc2c1-c1c(O)c(C)nn(CC#N)c1=O [2-431]
- I: wild oat, herbicidal effect grade (wild oat [1]): 0 (Herbicidal rate of 5% or less (almost no effect))
- G: green foxtail, herbicidal effect grade (green foxtail [2]): 0 (Herbicidal rate of 5% or less (almost no effect))
- herbicidal effect, K: Italian ryegrass (Italian ryegrass [3]): 0 (Herbicidal rate of 5% or less (almost no effect))
- Herbicidal effect, B: Japanese bulrush (Japanese bulrush): 0 (Herbicidal rate of 5% or less (almost no effect))
- herbicidal effect on H: barnyard grass (barnyard grass [4]): 5 (Herbicidal rate of 90% or more (almost completely withered))
- herbicidal effect, N: redroot pigweed (redroot pigweed [5]): 5 (Herbicidal rate of 90% or more (almost completely withered))
- N: redroot pigweed, herbicidal effect grade (redroot pigweed [6]): 3 (Herbicidal rate of 40% or more and less than 70%)
- Herbicidal effect, A: late watergrass (late watergrass): 2 (Herbicidal rate of 20% or more and less than 40%)
- herbicidal effect, H: barnyard grass (barnyard grass [7]): 0 (Herbicidal rate of 5% or less (almost no effect))
- H: barnyard grass, herbicidal effect grade (barnyard grass [8]): 0 (Herbicidal rate of 5% or less (almost no effect))
- herbicidal effect, M: velvetleaf (velvetleaf [9]): 1 (Herbicidal rate of 5% or more and less than 20%)
- herbicidal effect, R: persian speedwell (persian speedwell [10]): 0 (Herbicidal rate of 5% or less (almost no effect))
- herbicidal effect, I: wild oat (wild oat [11]): 0 (Herbicidal rate of 5% or less (almost no effect))
- Herbicidal effect, C: oval-leafed pondweed (oval-leafed pondweed): 0 (Herbicidal rate of 5% or less (almost no effect))
- herbicidal effect, L: windgrass (windgrass [12]): 0 (Herbicidal rate of 5% or less (almost no effect))
- herbicidal effect, O: lambsquarters (lambsquarters [13]): 1 (Herbicidal rate of 5% or more and less than 20%)
- K: Italian ryegrass, herbicidal effect grade (Italian ryegrass [14]): 0 (Herbicidal rate of 5% or less (almost no effect))
- R: persian speedwell, herbicidal effect grade (persian speedwell [15]): 3 (Herbicidal rate of 40% or more and less than 70%)
- herbicidal effect, G: green foxtail (green foxtail [16]): 0 (Herbicidal rate of 5% or less (almost no effect))
- J: blackgrass, herbicidal effect grade (blackgrass [17]): 0 (Herbicidal rate of 5% or less (almost no effect))
- herbicidal effect, Q: false cleavers (false cleavers): 0 (Herbicidal rate of 5% or less (almost no effect))
- herbicidal effect on E: rice flat sedge (rice flat sedge): 5 (Herbicidal rate of 90% or more (almost completely withered))
- L: windgrass, herbicidal effect grade (windgrass [18]): 0 (Herbicidal rate of 5% or less (almost no effect))
- herbicidal effect, F: southern crabgrass (southern crabgrass [19]): 0 (Herbicidal rate of 5% or less (almost no effect))
- P: chickweed, herbicidal effect grade (chickweed [20]): 5 (Herbicidal rate of 90% or more (almost completely withered))
- O: lambsquarters, herbicidal effect grade (lambsquarters [21]): 1 (Herbicidal rate of 5% or more and less than 20%)
- herbicidal effect, J: blackgrass (blackgrass [22]): 0 (Herbicidal rate of 5% or less (almost no effect))
- M: velvetleaf, herbicidal effect grade (velvetleaf [23]): 2 (Herbicidal rate of 20% or more and less than 40%)
- F: southern crabgrass, herbicidal effect grade (southern crabgrass [24]): 0 (Herbicidal rate of 5% or less (almost no effect))
- herbicidal effect on D: Chinese sprangletop (Chinese sprangletop): 3 (Herbicidal rate of 40% or more and less than 70%)

Compound: Cc1nn(C)c(=O)c(-c2c(-c3ccc(OCC(F)(F)F)cc3)oc3ccc(F)cc23)c1O [9-035]
- herbicidal effect on wild oat (I) (wild oat [1]): 5 (Herbicidal rate of 90% or more (almost completely withered))
- herbicidal effect on green foxtail (G) (green foxtail [2]): 5 (Herbicidal rate of 90% or more (almost completely withered))
- K: Italian ryegrass, herbicidal effect grade (Italian ryegrass [3]): 5 (Herbicidal rate of 90% or more (almost completely withered))
- Herbicidal effect, B: Japanese bulrush (Japanese bulrush): 0 (Herbicidal rate of 5% or less (almost no effect))
- Herbicidal effect on H (barnyard grass), foliage application (barnyard grass [4]): 5 (Herbicidal rate of 90% or more (almost completely withered))
- N: redroot pigweed, herbicidal effect grade (redroot pigweed [5]): 5 (Herbicidal rate of 90% or more (almost completely withered))
- Herbicidal effect, A: late watergrass (late watergrass): 2 (Herbicidal rate of 20% or more and less than 40%)
- P: chickweed, herbicidal effect grade (chickweed [25]): 5 (Herbicidal rate of 90% or more (almost completely withered))
- H: barnyard grass, herbicidal effect grade (barnyard grass [7]): 5 (Herbicidal rate of 90% or more (almost completely withered))
- herbicidal effect on barnyard grass (H) (barnyard grass [8]): 5 (Herbicidal rate of 90% or more (almost completely withered))
- M: velvetleaf, herbicidal effect grade (velvetleaf [9]): 4 (Herbicidal rate of 70% or more and less than 90%)
- R: persian speedwell, herbicidal effect grade (persian speedwell [10]): 5 (Herbicidal rate of 90% or more (almost completely withered))
- I: wild oat, herbicidal effect grade (wild oat [11]): 2 (Herbicidal rate of 20% or more and less than 40%)
- Herbicidal effect, C: oval-leafed pondweed (oval-leafed pondweed): 0 (Herbicidal rate of 5% or less (almost no effect))
- L: windgrass, herbicidal effect grade (windgrass [12]): 5 (Herbicidal rate of 90% or more (almost completely withered))
- O: lambsquarters, herbicidal effect grade (lambsquarters [13]): 5 (Herbicidal rate of 90% or more (almost completely withered))
- herbicidal effect on Italian ryegrass (K) (Italian ryegrass [14]): 5 (Herbicidal rate of 90% or more (almost completely withered))
- herbicidal effect on persian speedwell (R) (persian speedwell [15]): 5 (Herbicidal rate of 90% or more (almost completely withered))
- G: green foxtail, herbicidal effect grade (green foxtail [16]): 5 (Herbicidal rate of 90% or more (almost completely withered))
- herbicidal effect on blackgrass (J) (blackgrass [17]): 5 (Herbicidal rate of 90% or more (almost completely withered))
- Q: false cleavers, herbicidal effect grade (false cleavers): 3 (Herbicidal rate of 40% or more and less than 70%)
- Herbicidal effect on E (rice flat sedge), foliage application (rice flat sedge): 5 (Herbicidal rate of 90% or more (almost completely withered))
- herbicidal effect on windgrass (L) (windgrass [18]): 5 (Herbicidal rate of 90% or more (almost completely withered))
- F: southern crabgrass, herbicidal effect grade (southern crabgrass [19]): 5 (Herbicidal rate of 90% or more (almost completely withered))
- herbicidal effect on lambsquarters (O) (lambsquarters [21]): 4 (Herbicidal rate of 70% or more and less than 90%)
- J: blackgrass, herbicidal effect grade (blackgrass [22]): 5 (Herbicidal rate of 90% or more (almost completely withered))
- herbicidal effect on velvetleaf (M) (velvetleaf [23]): 5 (Herbicidal rate of 90% or more (almost completely withered))
- herbicidal effect on southern crabgrass (F) (southern crabgrass [24]): 5 (Herbicidal rate of 90% or more (almost completely withered))
- Herbicidal effect on D (Chinese sprangletop), foliage application (Chinese sprangletop): 3 (Herbicidal rate of 40% or more and less than 70%)
